Measurements from patent US8877785B2, “Methods and compositions for enhancing sensitivity of cytotoxic drugs with timely combinatorial therapy with carboxyamidotriazole orotate” (Tactical Therapeutics Inc, priority 2009, dated 2014).

What was measured:
[1] = system: human LOX IMVI melanoma xenografts; assay: Antitumor activity against SC-implanted human LOX IMVI melanoma xenografts (experiment TTI-6A); assay type: in vivo, mice
Source text: The purpose of the experiment TTI-6A was to evaluate the antitumor activity of CTO when administered in combination with temozolomide against subcutaneously (SC)-implanted human LOX IMVI melanoma xenografts in female, athymic NCr-nu/nu mice. Female six-week-old athymic NCr-nu/nu mice were purchased from Charles River Laboratories (Wilmington, Mass.). Human LOX IMVI melanoma cells were maintained as an ascites passage. […] The day of tumor fragment implantation was designated as Day 0.
(§1) CTO was administered to mice by exact individual animal's body weight on each day of treatment, with the injection volume being 0.1 mL/10 g body weight. temozolomide dosing formulations were administered to mice within 30 minutes of formulation by exact individual body weight on each day of treatment, with the injection volume being 0.2 mL/10 g body weight.
The study consisted of nine groups of ten mice per group. Animals in Group 1 were treated with the CTO vehicle (40% PEG 400 in deionized water) on a Q1Dx14 schedule (Days 6-19) in combination with the temozolomide vehicle (0.3% Klucel in saline), which was administered on a Q4Dx3 schedule (Days 6, 10, and 14). Animals in Groups 2 and 3 were treated with CTO at doses of 513 and 342 mg/kg/dose, respectively, on a Q1Dx14 schedule. Animals in Groups 4 and 5 were treated with temozolomide at, doses of 90 and 60 mg/kg/dose, respectively, on a Q4Dx3 schedule. Animals in Groups 6 and 7 were treated with CTO on a Q1Dx14 schedule at doses of 513 and 342 mg/kg/dose, respectively, in combination with temozolomide which was administered at a dose of 90 mg/kg/dose on a Q4Dx3 schedule. Animals in Groups 8 and 9 were treated with CTO on a Q1Dx14 schedule at doses of 513 and 342 mg/kg/dose, respectively, in combination with temozolomide which was administered at a dose of 60 mg/kg/dose on a Q4Dx3 schedule.
The SC tumors were measured and the animals were weighed two times a week. Tumor volume was determined by the formula for an ellipsoid sphere: L×W^2/2=mm^3, where L and W refer to the larger and smaller perpendicular dimensions collected at each measurement. The experiment was terminated on Day 35.
Parameters Evaluated—Number of nonspecific deaths, number of complete tumor regressions, number of tumor-free survivors on Day 35, and the median time for the tumors to reach four tumor mass doublings were determined. Comparison of the median tumor weight in the treatment groups to the median tumor weight in the control group (T/C×100%) on Day 19 (the last day of treatment with CTO and the last day of data collection when mice in the control group were still alive) was used for an additional evaluation of the antitumor efficacy of the combination treatments. […] FIG. 1.

[2] = given in combination (CTO Q1Dx14, temozolomide Q4Dx3); MTD = dose without death and no more than 20% mean body weight loss
Source text: The purpose of the first experiment was to evaluate the tolerance of female athymic NCr-nu/nu mice to the combination treatment of 5-amino-1-(4-(4-chlorobenzoyl)-3,5-dichlorobenzyl)-1,2,3-triazole-4-carboxyamide orotate (CTO) and a cytotoxic chemotherapeutic agent selected from the group consisting of temozolomide, 5-FU, methotrexate, doxorubicin and daunorubicin.
Polyethylene glycol (PEG 400, MW 400) was purchased from Aldrich Chemistry. Deionized water was purchased from LabChem, Inc. Klucel (hydroxypropyl cellulose) was purchased from Aldrich. Saline (physiological saline solution, for animal use only) was purchased from Nova-Teck, Inc. Tween 80 (T80, polysorbate 80) was purchased from Fisher Scientific. CTO (MW 580.76) was stored at room temperature protected from light upon receipt. CTO was formulated once a week (on Days 1 and 8) at a concentration of 51.3 mg/mL in 40% PEG 400 in deionized water. Temozolomide® (temozolomide, Schering Co., 20 mg/capsule) was prepared on each day treatment by adding several drops of T80 to the powder, and then adding 0.3% Klucel in saline to yield a concentration of 4.5 mg/mL.
The study consisted of four groups of five mice per group for a total of 25 mice on Day 1. […]

[3] = Body weight loss and deaths in LOX IMVI tumor-bearing athymic NCr-nu/nu mice (experiment TTI-6A); assay type: in vivo
Source text: The purpose of the experiment TTI-6A was to evaluate the antitumor activity of CTO when administered in combination with temozolomide against subcutaneously (SC)-implanted human LOX IMVI melanoma xenografts in female, athymic NCr-nu/nu mice. Female six-week-old athymic NCr-nu/nu mice were purchased from Charles River Laboratories (Wilmington, Mass.). Human LOX IMVI melanoma cells were maintained as an ascites passage. Each mouse was implanted SC near the right flank with one million (1×10^6) of the LOX IMVI human melanoma cell from an in vivo passage using a 23 g needle. The day of tumor fragment implantation was designated as Day 0. Individual tumors of 90 animals grew to 126-198 mg in weight (126-198 mm^3 in size) on Day 6 after tumor implantation (Jul. 20, 2011), the day of treatment initiation. Those animals selected with tumors in the proper size range were assigned to nine treatment groups so that the mean tumor weights in all groups on Day 6 were as close to each other as possible (mean tumor weights being 165 or 166 mg, median tumor weights ranging from 162 to 176 mg).
as §1
The study consisted of nine groups of ten mice per group. […]
The SC tumors were measured and the animals were weighed two times a week. Tumor volume was determined by the formula for an ellipsoid sphere: L×W^2/2=mm^3, where L and W refer to the larger and smaller perpendicular dimensions collected at each measurement. […]
Parameters Evaluated—Number of nonspecific deaths, number of complete tumor regressions, number of tumor-free survivors on Day 35, and the median time for the tumors to reach four tumor mass doublings were determined. […]

[4] = Group 4: temozolomide 90 mg/kg/dose oral Q4Dx3 alone
[5] = Group 5: temozolomide 60 mg/kg/dose oral Q4Dx3 alone

Compound | inhibition of the growth of the human LOX IMVI melanoma xenografts (in words) ([1]; CTO 513 or 342 mg/kg/dose oral for fourteen consecutive days) | median tumor growth delay ([1]; Group 2: CTO 513 mg/kg/dose Q1Dx14 alone) | T/C value (median tumor weight treated/control x100%) on Day 19 ([1]; Group 2: CTO 513 mg/kg/dose oral Q1Dx14 alone) | median tumor growth delay ([1]; Group 3: CTO 342 mg/kg/dose Q1Dx14 alone) | T/C value (median tumor weight treated/control x100%) on Day 19 ([1]; Group 3: CTO 342 mg/kg/dose oral Q1Dx14 alone) | maximum tolerated dose (MTD) [2] | maximum mean body weight loss [3, 4] | maximum mean body weight loss [3, 5] | maximum mean body weight loss ([3]; Groups 4 and 5: temozolomide 90 and 60 mg/kg/dose oral Q4Dx3 alone, both groups) | delay in the growth of the median tumor ([1]; Group 4: temozolomide 90 mg/kg/dose Q4Dx3 alone) | T/C value (median tumor weight treated/control x100%) on Day 19 [1, 4] | median time for the tumor to reach four tumor mass doublings [1, 4] | delay in the growth of the median tumor ([1]; Group 5: temozolomide 60 mg/kg/dose Q4Dx3 alone) | T/C value (median tumor weight treated/control x100%) on Day 19 [1, 5] | median time for the tumor to reach four tumor mass doublings [1, 5]
5-amino-1-(4-(4-chlorobenzoyl)-3,5-dichlorobenzyl)-1,2,3-triazole-4-carboxyamide orotate [CTO] | measurable inhibition | 3.1 days | 65% | 1.6 days | 70% | above 513 mg/kg/dose | – | – | – | – | – | – | – | – | –
Cn1nnc2c(C(N)=O)ncn2c1=O [temozolomide] | – | – | – | – | – | > 90 mg/kg/dose | 7% | 7% | 1.6 to 1.8 g | 8.5 days | 36% | 17.2 days | 3.6 days | 57% | 12.3 days
